In US20250270227A1, “CAMPTOTHECIN DERIVATIVE, AND PHARMACEUTICAL COMPOSITION AND USE THEREOF” (SIMCERE ZAIMING PHARMACEUTICAL CO., LTD., priority 2021, published 2025):
Where two headings read alike, the source gives them in different places.

Columns and labels:
Type in all cases: cell-based
[1] = tested on: human non-small cell lung cancer cell line A549; assay: Test 2 of anti-proliferative activity against tumor cells (Cell-Titer Glo)
Description: (§1) Cell culture: SK-OV-3 cells were cultured in McCoy's 5a medium containing 10% fetal bovine serum+1% penicillin-streptomycin, PA-1 cells were cultured in MEM medium containing 10% fetal bovine serum+1% MEM NEAA+1% sodium pyruvate+1% penicillin-streptomycin, NCI-H82 cells and MDA-MB-231 cells were cultured in 1640 medium containing 10% fetal bovine serum+1% penicillin-streptomycin, A549 cells were cultured in DMEM medium containing 10% fetal bovine serum+1% penicillin-streptomycin, all under conditions of 37° C. and 5% CO2. Cells in logarithmic growth phase were suitable for the experiment.
(§2) Detection of cell proliferation activity: The inhibitory activity of the compounds on the proliferation of the five cell lines SK-OV-3, PA-1, NCI-H82, MDA-MB-231 and A549 was detected using Cell-Titer Glo reagent. SK-OV-3 cell (1000 cells per well), PA-1 cells (800 cells per well), NCI-H82 cells (5000 cells per well), MDA-MB-231 cells (3000 cells per well) and A549 cells (400 cells per well) were seeded in 96-well plates and cultured at 37° C. and 5% CO2 for 24 h. The compound to be tested was dissolved in DMSO to a concentration of 1 mM, then subjected to gradient dilution with DMSO and corresponding medium, and transferred to 96-well cell plates to a final concentration of 300 nM (initial concentration), with 3-fold dilution and a total of 9 concentration points. The cells were cultured at 37° C. and 5% CO2 for additional 5 days. The cell viability was detected by adding Cell-Titer Glo reagent.
(§3) Additionally, a negative control group and a positive control group were provided as Bottom and Top, respectively. In the negative control group, the cells were not added, only the same volume of medium was added, and other operations were consistent with those in the experimental group; in the positive control group, the test compound was not added, only the same volume of DMSO was added, and other operations were consistent with those in the experimental group.
(§4) Data analysis: The % compound inhibition was calculated, and fitting was performed to obtain IC50 of the compound.
(§5) % Compound inhibition=1−100%*(Signal−Bottom)/(Top−Bottom).
(§6) Signal represents the signal value of the experimental group, Bottom represents the average signal value of the negative control group, and Top represents the average signal value of the positive control group.

[2] = tested on: human breast cancer cell line MDA-MB-231; assay: as above
Description: as §1, §2, §3, §4, §5, §6

[3] = tested on: human small cell lung cancer cell line NCI-H82; assay: as above; conditions: Homo sapiens, NCI-H82, 120 h, read-out: NCI-H82 Anti-proliferative activity IC50 (nM), NCI-H82 cells, 5 days, Cell-Titer Glo
Description: as §1, §2, §3, §4, §5, §6

[4] = tested on: human ovarian cancer cell line PA-1; assay: as above
Description: as §1, §2, §3, §4, §5, §6

[5] = tested on: Human ovarian cancer cell line SK-OV-3; assay: as above
Description: as §1, §2, §3, §4, §5, §6

[6] = tested on: Human colorectal cancer cell line HCT116; assay: Test 1 of anti-proliferative activity against tumor cells (Cell-Titer Glo)
Description: (§7) Cell culture: HCT116 cells and SKBR3 cells were cultured in McCoy's 5a medium containing 10% fetal bovine serum+1% penicillin-streptomycin at 37° C. and 5% CO2, and OVCAR3 cells were cultured in 1640 medium containing 20% fetal bovine serum+2 μg/mL bovine insulin+1% penicillin-streptomycin at 37° C. and 5% CO2. Cells in logarithmic growth phase were suitable for the experiment.
(§8) Detection of cell proliferation activity: The inhibitory activity of the compounds on the proliferation of the three cell lines HCT116, SKBR3 and OVCAR3 was detected using Cell-Titer Glo reagent. HCT116 cells (1500 cells per well), SKBR3 cells (3000 cells per well) and OVCAR3 cells (5000 cells per well) were seeded in 96-well plates and cultured at 37° C. and 5% CO2 for 24 h. The solution of the compound to be tested (the compound was dissolved in DMSO with the concentration of the compound being 1 mM, then the compound was diluted to 3 μM with DMSO, with 3-fold dilution and a total of 9 concentrations, and 10 μL of the prepared compound solution was transferred to a 96-well plate with the final concentration of 0-300 nM) was added. The cells were placed at 37° C. and 5% CO2 for further culture. HCT116 cells were cultured for 3 days, and SKBR3 cells and OVCAR3 cells were cultured for 5 days. The cell viability was detected by adding Cell-Titer Glo reagent.
as §3, §4, §5, §6

[7] = tested on: human ovarian cancer cell line OVCAR3; assay: as above
Description: as §7, §8, §3, §4, §5, §6

[8] = tested on: human breast cancer cell line SKBR3; assay: as above
Description: as §7, §8, §3, §4, §5, §6

[9] = Homo sapiens, A549, 120 h, read-out: A549 Anti-proliferative activity IC50 (nM), A549 cells, 5 days, Cell-Titer Glo
[10] = Homo sapiens, MDA-MB-231, 120 h, read-out: MDA-MB-231 Anti-proliferative activity IC50 (nM)
[11] = Homo sapiens, PA-1, 120 h, read-out: PA-1 Anti-proliferative activity IC50 (nM), PA-1 cells, 5 days, Cell-Titer Glo
[12] = Homo sapiens, SK-OV-3, 120 h, read-out: SK-OV-3 Anti-proliferative activity IC50 (nM)
[13] = Homo sapiens, HCT-116, 72 h, read-out: HCT116 Anti-proliferative activity IC50 (nM), HCT116 cells, cultured 3 days with compound, Cell-Titer Glo
[14] = Homo sapiens, OVCAR-3, 120 h, read-out: OVCAR3 Anti-proliferative activity IC50 (nM)
[15] = Homo sapiens, A549, 120 h, A549 cells, 5 days, Cell-Titer Glo, read-out: A549 Anti-proliferative activity IC50
[16] = Homo sapiens, MDA-MB-231, 120 h, MDA-MB-231 cells, 5 days, Cell-Titer Glo, read-out: MDA-MB-231 Anti-proliferative activity IC50
[17] = Homo sapiens, PA-1, 120 h, PA-1 cells, 5 days, Cell-Titer Glo, read-out: PA-1 Anti-proliferative activity IC50
[18] = Homo sapiens, SK-OV-3, 120 h, SK-OV-3 cells, 5 days, Cell-Titer Glo, read-out: SK-OV-3 Anti-proliferative activity IC50
[19] = Homo sapiens, SK-BR-3, 120 h, SKBR3 cells, cultured 5 days with compound, Cell-Titer Glo, read-out: SKBR3 Anti-proliferative activity IC50
[20] = Homo sapiens, OVCAR-3, 120 h, OVCAR3 cells, cultured 5 days with compound, Cell-Titer Glo, read-out: OVCAR3 Anti-proliferative activity IC50

SMILES | IC50 [1, 9] [nM] | IC50 [2, 10] [nM] | IC50 [4, 11] [nM] | IC50 [5, 12] [nM] | IC50 [6, 13] [nM] | IC50 [7, 14] [nM] | IC50 [1, 15] [nM] | IC50 [2, 16] [nM] | IC50 [4, 17] [nM] | IC50 [5, 18] [nM] | IC50 [8, 19] [nM] | IC50 [7, 20] [nM] | also measured
CC[C@@]1(O)C(=O)OCc2c1cc1n(c2=O)Cc2c-1nc1cc3c(c(Cl)c1c2CNC(=O)CO)OCO3 [Compound 31, (S)-N-((15-chloro-7-ethyl-7-hydroxy-8,11-dioxo-7,8,11,13-tetrahydro-10H-[1,3]dioxolo[4,5-g]pyrano[3′,4′:6,7]indolizino[1,2-b]quinolin-14-yl)methyl)-2-hydroxyacetamide] | 15.9 | 13.5 | 1.7 | 12.3 | 1.2 | 0.2 | – | – | – | – | – | – | IC50 [3]: 4 nM
CC[C@@]1(O)C(=O)OCc2c1cc1n(c2=O)Cc2c-1nc1cc3c(c(F)c1c2CN)OCO3 [Compound 35, (S)-14-(aminomethyl)-7-ethyl-15-fluoro-7-hydroxy-10,13-dihydro-11H-[1,3]dioxolo[4,5-g]pyrano[3′,4′:6,7]indolizino[1,2-b]quinoline-8,11(7H)-dione] | – | – | 0.8 | – | – | 0.9 | – | – | – | – | – | – | –
CC[C@@]1(O)C(=O)OCc2c1cc1n(c2=O)Cc2c-1nc1cc3c(c(F)c1c2CNC(=O)C(O)C1CC1)OCO3 (stereo partly drawn) [Compound 37, 2-cyclopropyl-N-(((S)-7-ethyl-15-fluoro-7-hydroxy-8,11-dioxo-7,8,11,13-tetrahydro-10H-[1,3]dioxolo[4,5-g]pyrano[3′,4′:6,7]indolizino [1,2-b]quinolin-14-yl)methyl)-2-hydroxyacetamide] | 19.6 | 23.9 | 0.9 | 3.5 | 8.1 | 1.2 | – | – | – | – | – | – | IC50 ([8]; Homo sapiens, SK-BR-3, 120 h, read-out: SKBR3 Anti-proliferative activity IC50 (nM), SKBR3 cells, cultured 5 days with compound, Cell-Titer Glo): 3.5 nM
CC[C@@]1(O)C(=O)OCc2c1cc1n(c2=O)Cc2c-1nc1cc3c(c(F)c1c2CNC(=O)[C@@H](O)C1CC1)OCO3 [Compound 37-P2, 2-cyclopropyl-N-(((S)-7-ethyl-15-fluoro-7-hydroxy-8,11-dioxo-7,8,11,13-tetrahydro-10H-[1,3]dioxolo[4,5-g]pyrano[3′,4′:6,7]indolizino [1,2-b]quinolin-14-yl)methyl)-2-hydroxyacetamide] | – | – | – | – | – | – | 16.1 | 25.9 | 1.1 | 3 | 3.6 | 1.8 | –
[2H]C1([2H])Oc2cc3nc4c(c(CNC(=O)[C@@H](O)C5CC5)c3cc2O1)Cn1c-4cc2c(c1=O)COC(=O)[C@]2(O)CC [Compound 39-P1, 2-cyclopropyl-N-(((S)-7-ethyl-7-hydroxy-8,11-dioxo-7,8,11,13-tetrahydro-10H-[1,3]dioxolo[4,5-g]pyrano[3′,4′:6,7]indolizino[1,2-b]quinolin-14-yl-2,2-d2)methyl)-2-hydroxyacetamide] | – | – | – | – | – | – | 13.9 | 15.6 | 0.9 | 1.9 | 1.9 | 0.6 | IC50 ([6]; Homo sapiens, HCT-116, 72 h, HCT116 cells, cultured 3 days with compound, Cell-Titer Glo, read-out: HCT116 Anti-proliferative activity IC50): 4.6 nM
[2H]C1([2H])Oc2cc3nc4c(c(CNC(=O)[C@@H](O)C5CC5)c3cc2O1)Cn1c-4cc2c(c1=O)COC(=O)[C@]2(O)CC [Compound 39-P2, 2-cyclopropyl-N-(((S)-7-ethyl-7-hydroxy-8,11-dioxo-7,8,11,13-tetrahydro-10H-[1,3]dioxolo[4,5-g]pyrano[3′,4′:6,7]indolizino[1,2-b]quinolin-14-yl-2,2-d2)methyl)-2-hydroxyacetamide] | – | – | – | – | – | – | – | – | – | – | – | – | IC50 ([1]; A549 cells, 5 days, Cell-Titer Glo, read-out: A549 Anti-proliferative activity IC50): 15.7 nM; IC50 ([2]; MDA-MB-231 cells, 5 days, Cell-Titer Glo, read-out: MDA-MB-231 Anti-proliferative activity IC50): 23.2 nM; IC50 ([4]; PA-1 cells, 5 days, Cell-Titer Glo, read-out: PA-1 Anti-proliferative activity IC50): 1.2 nM; IC50 ([5]; SK-OV-3 cells, 5 days, Cell-Titer Glo, read-out: SK-OV-3 Anti-proliferative activity IC50): 2.1 nM; IC50 ([6]; HCT116 cells, cultured 3 days with compound, Cell-Titer Glo, read-out: HCT116 Anti-proliferative activity IC50): 6.5 nM; IC50 ([8]; SKBR3 cells, cultured 5 days with compound, Cell-Titer Glo, read-out: SKBR3 Anti-proliferative activity IC50): 2.9 nM; IC50 ([7]; OVCAR3 cells, cultured 5 days with compound, Cell-Titer Glo, read-out: OVCAR3 Anti-proliferative activity IC50): 1 nM
